Data taken from patent US20050060764A1, “Mouse model for bone metabolism” (priority 2003, published 2005).
Strand notation (5' to 3'): a small letter for the sugar, then the base; units joined by * are phosphorothioate-linked, units joined directly phosphodiester-linked; [ ] holds rarer units or linkages, { } end groups; capitals alone tell only the bases. e = 2'-O-(2-methoxyethyl) (MOE); [5mC] = 5-methylcytosine; d = 2'-deoxy (DNA)

B1: PTH alone (peptide, UniProt P01270 32-115, looked up)
Parathyroid hormone: SVSEIQLMHNLGKHLNSMERVEWLRKKLQDVHNFVALGAPLAPRDAGSQRPRKKEDNVLVESHEKSLGEADKADVNVLTKAKSQ

Legend:
[1] = Serum calcium concentration after PTH infusion in mice: specificity and dose response of RANK antisense oligonucleotide (Table 15); assay type: in vivo, mouse; details: for serum calcium: then 24 h PTH
Protocol: (§1) In accordance with the present invention, the specificity of RANK inhibition by a RANK antisense oligonucleotide was compared to that of an 8-base pair mismatch oligonucleotide.
(§2) ISIS 181080 ([…], SEQ ID NO: 357) is an antisense oligonucleotide targeted to mouse RANK. ISIS 208565 ([…], SEQ ID NO: 358) is an 8-base pair mismatch oligonucleotide. […] All cytidine residues are 5-methylcytidines.
(§3) Female Swiss-Webster mice (5-8 wks old) fed a low-calcium diet were treated for two weeks with either ISIS 181080 or ISIS 208565. The dose of oligonucleotide was either 40 mg/kg, 30 mg/kg, 20 mg/kg, or 10 mg/kg. After the 2-week treatment with oligonucleotides, the mice were infused with PTH by subcutaneously implanted mini-pumps at a dose of 4 ug/100 g over 24 hours. A group of control mice were dosed with either saline, PTH alone (1 ug/100 g/6 hr) or calcitonin (400 ng) plus PTH (1 ug/100 g/6 hr). After 24 hours of PTH infusion (total PTH delivery of 4 ug/100 g), the mice were sacrificed and measurements were made of serum calcium with the Sigma Diagnostics Calcium Kit (Sigma-Aldrich) and RANK mRNA expression in proximal tibia (as described in other examples herein). The results shown in Table 15 are the average from four mice per group. Percent inhibition of RANK mRNA is normalized to PTH treatment alone. […] The data also illustrate that these effects are occurring due to an antisense mechanism.

[2] = system: RANK mRNA; test: Antisense inhibition of RANK mRNA expression in proximal tibia after PTH infusion in mice: specificity and dose response (Table 15); assay type: in vivo, mouse; details: for RANK mRNA % inhibition (normalized to PTH): then 24 h PTH, proximal tibia
Protocol: as §1, §2, §3

[3] = system: RANKL mRNA; test: Antisense inhibition of RANKL mRNA expression followed by PTH treatment in primary mouse osteoblast cells: dose response (Table 8); assay type: cell-based; details: primary mouse osteoblast cells; 63 nM, 125 nM, 250 nM, or 500 nM, 24 hours, FuGENE 6; 10 nM PTH last 2 hours
Protocol: Primary mouse osteoblasts were prepared from calvaria of neonatal mice purchased from Charles River Laboratories. […] Cells were not passaged. Cells were seeded onto 6-well plates (Falcon-Primaria #353846) at a density of 50,000 cells/well for use in antisense oligonucleotide transfection.
In a further embodiment of this invention, the effect of RANKL antisense oligonucleotides and PTH treatment on the expression of RANKL was determined in primary osteoblast cells isolated from mice skull caps.
ISIS 143624 ([…], SEQ ID NO: 348) was used as a control oligonucleotide. […] All cytidine residues are 5-methylcytidines.
Primary osteoblastic cells were transfected for 24 hours with either Isis 180819 (SEQ ID NO: 185) or the control oligo ISIS 143624 (SEQ ID NO: 348) at a dose of […], 125 nM, 250 nM, or 500 nM by the methods described herein but using the transfection reagent FuGENE 6 (Roche Applied Science, Indianapolis, Ind.). During the last 2 hours of oligonucleotide transfection, the cells were treated with 10 nM PTH. The RNA was then harvested and the expression levels of […] were measured by the methods described herein. The results are expressed as percent inhibition relative to PTH treatment alone and represent the average from three experiments.

[4] = system: mouse RANKL mRNA; test: Antisense inhibition of mouse RANKL mRNA levels in C2C12 cells, quantitative real-time PCR (Table 2); assay type: cell-based; design: concentration or dose not given beside the values; details: averages from three experiments
In short: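 C2C12 cells seeded at ~10,000 cells/cm^2, treated with antisense oligonucleotides (all C as 5-methylcytidine) in triplicate and harvested 16-24 h later. Mouse RANKL mRNA quantified by real-time RT-PCR with a FAM/TAMRA probe, with mouse GAPDH (JOE/TAMRA probe) as reference.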

[5] = Serum calcium concentration 24 hours after PTH infusion in mice treated with RANKL antisense oligonucleotides (Table 10); assay type: in vivo, mouse; details: then 24 h PTH infusion
Protocol: In accordance with the present invention, the effect of antisense oligonucleotide inhibition on PTH-induced serum calcium concentration increase was measured in mice. The serum calcium concentration in mice was measured as a function of antisense oligonucleotide dose. Calcitonin, a known bone antiresorptive agent, was used as a control for antiresorptive activity.
(§4) Female Swiss-Webster (5-8 wks old) mice fed a low-calcium diet were dosed subcutaneously for two weeks with either the oligonucleotides ISIS 180819 (SEQ ID NO: 185) or 180814 (SEQ ID NO: 180) at concentrations of 5 mg/kg, 15 mg/kg, 30 mg/kg, or 40 mg/kg. A control group of mice were treated with calcitonin (400 ng) plus PTH (1 ug/100 g/6 hr), PTH alone (1 ug/100 g/6 hr) or saline. Treatment with oligonucleotides was followed with infusion of PTH by subcutaneously implanted mini-pumps at a dose of 1 ug/100 g/6 hr. After 24 hours of PTH infusion (total PTH delivery of 4 ug/100 g), the mice were sacrificed and the serum calcium concentration was measured with the Sigma Diagnostics Calcium Kit (Sigma-Aldrich). The data, summarized in Table 10 are averages from eight mice. Percent mRNA inhibition is normalized to PTH alone treatment.

[6] = system: RANKL mRNA; test: RANKL mRNA % inhibition after PTH infusion in mice treated with RANKL antisense oligonucleotides for two weeks (Table 10); assay type: in vivo, mouse; details: then 24 h PTH infusion, normalized to PTH alone
Protocol: as §4

[7] = Serum calcium after RANK antisense oligonucleotide treatment and PTH infusion: time course (Table 13); assay type: in vivo, mouse; details: control mice, no oligonucleotide; PTH 1 ug/100 g/6 hr 24 h, calcitonin (400 ug)
Protocol: In accordance with the present invention, ISIS 181071 was administered to mice for different time periods to evaluate its ability to inhibit RANK expression and PTH-induced serum calcium concentration increase as a function of oligonucleotide treatment time.
Female Swiss-Webster mice (5-8 wks old) were fed a low-calcium diet and received daily subcutaneous injections of 30 mg/kg of ISIS 181071 (SEQ ID NO: 356) for 2, 3, 5, 7, 10, 14, or 21 days. At the end of the oligonucleotide treatment period, mice were infused with PTH by subcutaneously implanted mini-pumps at a dose of 1 ug/100 g/6 hr. A group of control mice were dosed with either saline, PTH alone (1 ug/100 g/6 hr) or calcitonin (400 ug) plus PTH (1 ug/100 g/6 hr). Following 24 hours of PTH infusion (total PTH delivery of 4ug/100 g), the mice were sacrificed and measurements were made of serum calcium with the Sigma Diagnostics Calcium Kit (Sigma-Aldrich) and RANK mRNA expression in the proximal tibia (as described in other examples herein). Percent RANK mRNA inhibition is normalized to PTH alone treatment.

[8] = mice, two weeks 10, 20, 30 or 40 mg/kg, 24 hours PTH infusion
[9] = 5 mg/kg subcutaneously two weeks
[10] = 15 mg/kg subcutaneously two weeks
[11] = 30 mg/kg subcutaneously two weeks
[12] = 40 mg/kg subcutaneously two weeks

Row | Molecule | serum calcium ([1]; 10 mg/kg two weeks) [mg/dL] | serum calcium ([1]; 20 mg/kg two weeks) [mg/dL] | serum calcium ([1]; 30 mg/kg two weeks) [mg/dL] | serum calcium ([1]; 40 mg/kg two weeks) [mg/dL] | RANK mRNA % inhibition (normalized to PTH) ([2]; 10 mg/kg two weeks) [%] | RANK mRNA % inhibition (normalized to PTH) ([2]; 20 mg/kg two weeks) [%] | RANK mRNA % inhibition (normalized to PTH) ([2]; 30 mg/kg two weeks) [%] | RANK mRNA % inhibition (normalized to PTH) ([2]; 40 mg/kg two weeks) [%] | other results
1 | GAGCTCCCGGACCCTGAGGC (listed as DNA, chemistry not given here) [ISIS 181080, antisense oligonucleotide targeted to mouse RANK] | 23 | 17 | 15 | 16 | 47 | 38 | 48 | 65 | PTH-induced rise in serum calcium concentration [1, 8]: lessens the PTH-induced rise in serum calcium concentration; expression of RANK mRNA in proximal tibia [2, 8]: inhibits expression of RANK mRNA in vivo
2 | TCCTCGAGAGGTCTCCTTGC (antisense eT*e[5mC]*e[5mC]*eT*e[5mC]*dG*dA*dG*dA*dG*dG*dT*d[5mC]*dT*d[5mC]*e[5mC]*eT*eT*eG*e[5mC]) [ISIS 208565, 8-base pair mismatch oligonucleotide, 2′-MOE gapmer, reference compound] | 21 | 17 | 18 | 16 | 0 | 0 | 19 | 7 | –
3 | TGCTCAGCGAGTGTGCCAGC (sugars by position and backbone not given here; further chemistry not fully specified) [ISIS 143624, control oligonucleotide, 2′-MOE gapmer, reference compound] | – | – | – | – | – | – | – | – | inhibition of PTH-induced increase in RANKL mRNA expression [3]: unable to reduce RANKL mRNA levels
4 | gtcttacacatgtatagaca (antisense eG*eT*e[5mC]*eT*eT*dA*d[5mC]*dA*d[5mC]*dA*dT*dG*dT*dA*dT*eA*eG*eA*e[5mC]*eA) [ISIS 180814, 2′-MOE gapmer targeted to mouse RANKL] | – | – | – | – | – | – | – | – | % INHIB (inhibition of mouse RANKL mRNA levels) [4]: at least 40%; serum calcium [5, 9]: 22 mg/dL; serum calcium [5, 10]: 20 mg/dL; serum calcium [5, 11]: 18 mg/dL; serum calcium [5, 12]: 19 mg/dL; RANKL mRNA, % inhib [6, 9]: 0 % inhib; RANKL mRNA, % inhib [6, 10]: 0 % inhib; RANKL mRNA, % inhib [6, 11]: 27 % inhib; RANKL mRNA, % inhib [6, 12]: 6 % inhib
5 | B1 | – | – | – | – | – | – | – | – | Serum calcium concentration [7]: 21 mg/dL
